Reference: patent US7026327B2, “Pyrimidine derivatives useful as selective COX-2 inhibitors” (Glaxo Group Limited, priority 2001, dated 2006)
Where two headings read alike, the source gives them in different places.

What was measured:
COX-1 [1] = target: T1, COX-1 (Homo sapiens, UniProt P23219); assay: Cell based assay, COS cells stably transfected with human COX-1, PGE2 release; design: expressed in transfected cells; host or cells: COS cells, stably transfected
Description: (§1) Inhibitory activity against human COX-1 and COX-2 was assessed in COS cells which had been stably transfected with cDNA for human COX-1 and human COX-2. 24 Hours prior to experiment, COS cells were transferred from the 175 cm^2 flasks in which they were grown, onto 24-well cell culture plates using the following procedure. The incubation medium (Dulbecco's modified eagles medium (DMEM) supplemented with heat-inactivated foetal calf serum (10% v/v), penicillin (100 IU/ml), streptomycin (100 μg/ml) and geneticin (600 μg/ml)) was removed from a flask of confluent cells (1 flask at confluency contains approximately 1×10^7 cells). 5 ml of phosphate buffered saline (PBS) was added to the flask to wash the cells. Having discarded the PBS, cells were then incubated with 5 ml trypsin for 5 minutes in an incubator (37°). The flask was then removed from the incubator and 5 ml of fresh incubation medium was added. The contents of the flask was transferred to a 250 ml sterile container and the volume of incubation medium subsequently made up to 100ml. 1 ml cell suspension was pipetted into each well of 4×24-well cell culture plates. The plates were then placed in an incubator (37° C., 95% air/5% CO2) overnight. If more than 1 flask of cells were required, the cells from the individual flasks were combined before being dispensed into the 24-well plates.
(§2) Following the overnight incubation, the incubation medium was completely removed from the 24-well cell culture plates and replaced with 250 μl fresh DMEM (37° C.). The test compounds were made up to 250× the required test concentration in DMSO and were added to the wells in a volume of 1 μl. Plates were then mixed gently by swirling and then placed in an incubator for 1 hour (37° C., 95% air/5% CO2). Following the incubation period, 10 μl of arachidonic acid (750 μM) was added to each well to give a final arachidonic acid concentration of 30 μM. Plates were then incubated for a further 10 minutes, after which the incubation medium was removed from each well of the plates and stored at −20° C., prior to determination of prostaglandin E2 (PGE2) levels using enzyme immunoassay. […] The selectivity ratio of inhibition of COX-1 versus COX-2 was calculated by comparing respective IC50 values.

human COX-2 = target: T2, human COX-2 (Homo sapiens, UniProt P35354); assay: Cell based assay, COS cells stably transfected with human COX-2, PGE2 release
T2 construct: expressed in transfected cells; host or cells: COS cells, stably transfected
T2 sequence (P35354 18-604): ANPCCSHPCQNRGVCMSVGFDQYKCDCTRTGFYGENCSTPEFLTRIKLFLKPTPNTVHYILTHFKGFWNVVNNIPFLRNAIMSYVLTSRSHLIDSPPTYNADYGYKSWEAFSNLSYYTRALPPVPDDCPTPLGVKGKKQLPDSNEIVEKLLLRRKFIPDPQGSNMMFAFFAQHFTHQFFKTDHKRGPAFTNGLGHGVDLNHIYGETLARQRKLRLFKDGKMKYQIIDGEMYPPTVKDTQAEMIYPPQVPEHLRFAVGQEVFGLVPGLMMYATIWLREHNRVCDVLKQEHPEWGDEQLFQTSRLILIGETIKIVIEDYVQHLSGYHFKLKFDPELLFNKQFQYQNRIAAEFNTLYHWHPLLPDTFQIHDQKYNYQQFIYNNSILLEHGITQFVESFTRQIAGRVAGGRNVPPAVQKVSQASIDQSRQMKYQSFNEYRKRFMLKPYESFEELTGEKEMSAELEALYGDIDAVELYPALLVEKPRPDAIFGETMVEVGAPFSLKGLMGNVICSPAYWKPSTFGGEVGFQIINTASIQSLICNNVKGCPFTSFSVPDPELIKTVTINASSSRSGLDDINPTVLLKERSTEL
Description: as §1, §2

COX-1 [2] = target: T1, COX-1; assay: Microsomal assay, COX-1; format: biochemical
microsomal h-COX2 = target: T3, microsomal h-COX2 (Homo sapiens, UniProt P35354); assay: Microsomal assay, h-COX2 microsomal preparation from baculovirus infected SF9 cells; format: biochemical
T3 construct: made in house; host or cells: baculovirus infected SF9 cells (microsomal preparation)
T3 sequence (P35354 18-604): T2 sequence (P35354 18-604)
Description: Inhibitory activity against microsomal h-COX2 was assessed against a microsomal preparation from baculovirus infected SF9 cells. An aliquot of microsomal preparation was thawed slowly on ice and a 1/40,000 dilution prepared from it into the assay buffer (sterile water, degassed with argon containing 100 mM HEPES (pH 7.4), 10 mM EDTA (pH7.4), 1 mM phenol, 1 mM reduced glutathione, 20 mg/ml gelatin and 0.001 mM Hematin). Once diluted the enzyme solution was then sonicated for 5 seconds (Branson sonicator, setting 4, 1 cm tip) to ensure a homogeneous suspension. 155 μl enzyme solution was then added to each well of a 96-well microtitre plate containing either 5 μl test compound (40× required test concentration) or 5 μl DMSO for controls. Plates were then mixed and incubated at room temperature for 1 hour. Following the incubation period, 40 μl of 0.5 μM arachidonic acid was added to each well to give a final concentration of 0.1 μM. Plates were then mixed and incubated for exactly 10 minutes (room temperature) prior to addition of […] HCl (hydrochloric acid) to each well to stop the reaction. 25 μl of 1 M NaOH (sodium hydroxide) was then added to each well to neutralise the solution prior to determination of PGE2 levels by enzyme immunoassay (EIA).

[3] = microsomal assay, PGE2 by EIA, 0.1 μM arachidonic acid, read-out: COX-2: IC50

T1 sequence (P23219 24-599): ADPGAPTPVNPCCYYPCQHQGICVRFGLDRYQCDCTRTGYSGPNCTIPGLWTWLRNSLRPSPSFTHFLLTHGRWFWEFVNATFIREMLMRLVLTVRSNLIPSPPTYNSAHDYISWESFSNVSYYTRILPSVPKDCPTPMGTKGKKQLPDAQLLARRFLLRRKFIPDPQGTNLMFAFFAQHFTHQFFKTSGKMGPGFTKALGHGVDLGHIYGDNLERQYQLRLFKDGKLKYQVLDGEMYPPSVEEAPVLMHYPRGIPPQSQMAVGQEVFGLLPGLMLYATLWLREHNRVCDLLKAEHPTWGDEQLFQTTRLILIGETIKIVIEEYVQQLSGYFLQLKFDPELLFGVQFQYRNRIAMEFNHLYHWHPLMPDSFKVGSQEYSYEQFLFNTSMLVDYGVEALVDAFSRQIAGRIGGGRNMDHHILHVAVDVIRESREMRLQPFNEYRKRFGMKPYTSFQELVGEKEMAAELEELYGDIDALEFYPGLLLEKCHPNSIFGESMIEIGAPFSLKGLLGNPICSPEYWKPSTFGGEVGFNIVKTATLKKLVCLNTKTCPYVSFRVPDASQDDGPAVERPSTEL

| SMILES | IC50 (COX-1 [1]) | IC50 (human COX-2) | IC50 (COX-1 [2]) | IC50 (microsomal h-COX2; [3]) | also measured |
| --- | --- | --- | --- | --- | --- |
| COc1ccc(Oc2nc(-c3ccc(S(C)(=O)=O)cc3)cc(C(F)(F)F)n2)cc1 [Example 3] | 2920 nM | 4 nM | – | – | – |
| CS(=O)(=O)c1ccc(-c2cc(C(F)(F)F)nc(OC3CCCCC3)n2)cc1 [Example 8, 2-(cyclohexyloxy)-4-[4-(methylsulfonyl)phenyl]-6-(trifluoromethyl)pyrimidine] | – | – | 1860 nM | – | – |
| CS(=O)(=O)c1ccc(-c2cc(C(F)(F)F)nc(OCC3CCCC3)n2)cc1 [Example 9] | – | – | – | – | IC50 (microsomal h-COX2): 22 nM |
| CCCCOc1nc(-c2ccc(S(C)(=O)=O)cc2)cc(C(F)(F)F)n1 [Example 10, 2-Butoxy-4-[4-(methylsulfonyl)phenyl]-6-(trifluoromethyl)pyrimidine] | – | – | – | 22 nM | – |

Continued, in another order:

| IC50 (COX-1 [1]) | IC50 (human COX-2) | IC50 (COX-1 [2]) | IC50 (microsomal h-COX2; [3]) | SMILES | also measured |
| --- | --- | --- | --- | --- | --- |
| 81300 nM | < 1 nM | – | – | CS(=O)(=O)c1ccc(-c2cc(C(F)(F)F)nc(Oc3ccc(F)cc3)n2)cc1 [Example 1, 2-(4-Fluorophenoxy)-4-[4-(methylsulfonyl)phenyl]-6-(trifluoromethyl)pyrimidine] | – |
| 9670 nM | 23 nM | – | – | CS(=O)(=O)c1ccc(-c2cc(C(F)(F)F)nc(Oc3ccc(F)c(F)c3)n2)cc1 [Example 2] | – |
| 61400 nM | 6 nM | – | – | CS(=O)(=O)c1ccc(-c2cc(C(F)(F)F)nc(Oc3ccc(Br)cc3)n2)cc1 [Example 5] | – |
| – | – | 3750 nM | < 10 nM | Cc1ccc(Oc2nc(-c3ccc(S(C)(=O)=O)cc3)cc(C(F)(F)F)n2)cc1 [Example 6] | – |
| – | – | 79900 nM | < 10 nM | CS(=O)(=O)c1ccc(-c2cc(C(F)(F)F)nc(Oc3cncc(Cl)c3)n2)cc1 [Example 7, 2-[(5-chloropyridin-3-yl)oxy]-4-[4-(methylsulfony)phenyl]-6-(trifluoromethyl)pyrimidine] | – |
